Literature values as cited in patent publication US9526785B2, “Pharmaceuticals for oral delivery” (Enteris BioPharma, Inc., priority 2013, dated 2016).
≈ marks a conversion by molar mass, not a printed value.

Assays:
[1] = tested on: Methicillin-Resistant Staphylococcus aureus (MRSA), Stenotrophomonas maltophilia, Haemophilus influenzae, and Neisseria gonorrhoeae; conditions: reported values; cited from earlier work
[2] = cited from earlier work

For CN(C)c1cc(NC(=O)CNC(C)(C)C)c(O)c2c1C[C@H]1C[C@H]3[C@H](N(C)C)C(O)=C(C(N)=O)C(=O)[C@@]3(O)C(O)=C1C2=O [Tigecycline], the MIC [1] is given as 2 µg/mL (≈ 3.41 µM) and the aqueous solubility [2] is given as “approximately 300 mg/mL”.
